Tests used:
Assay in all cases: relative viability (nuclei count vs DMSO), 5 days (fraction); higher = more cells survive
[1] = compound: CC[C@H](Nc1ncnc2[nH]cnc12)c1nc2cccc(F)c2c(=O)n1-c1ccccc1 [Idelalisib]
Summary of the method: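 For viability, nuclei in each treated well were divided by nuclei in vehicle wells and the median across plates was taken. Lung cancer cell lines in 1536-well plates were pinned with five library-drug doses (not always all listed) spaced by √10, cultured 5 days without medium change, and imaged at 4× after Hoechst staining, with plates passing only at control CV below 25% and at least one doubling.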

[2] = compound: CC[C@H](Nc1ncnc2[nH]cnc12)c1nc2cccc(F)c2c(=O)n1-c1ccccc1 [Idelalisib] + CC(=O)c1c(C)c2cnc(Nc3ccc(N4CCNCC4)cn3)nc2n(C2CCCC2)c1=O [Palbociclib] (partner 0.5 µM)
Summary of the method: (§1)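 Medians of duplicate plates are given as relative viability. That measure is the nuclei count in treated wells divided by the count in vehicle wells. Counts were taken on 4× images of lung cancer cell lines in 1536-well plates, 5 days after pin-tool dosing the day after seeding with one drug alone or a fixed anchor-drug dose plus five library-drug doses (not always all listed) in √10 steps.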

[3] = compound: Nc1nc2[nH]cc(CCc3ccc(C(=O)N[C@@H](CCC(=O)O)C(=O)O)cc3)c2c(=O)[nH]1 [Pemetrexed] + CC(C)C[C@H](NC(=O)[C@H](Cc1ccccc1)NC(=O)c1cnccn1)B(O)O [Bortezomib] (partner 0.002 µM)
Summary of the method: as §1

[4] = compound: Nc1nc2[nH]cc(CCc3ccc(C(=O)N[C@@H](CCC(=O)O)C(=O)O)cc3)c2c(=O)[nH]1 [Pemetrexed] + C[C@]1(O)C[C@@H](c2nc(-c3ccc4ccc(-c5ccccc5)nc4c3)c3c(N)nccn32)C1 [Linsitinib] (partner 1 µM)
Summary of the method: as §1

| Cell Line | relative viability ([1]; 0.04 µM) | relative viability ([1]; 0.1265 µM) | relative viability ([1]; 0.4 µM) | relative viability ([1]; 1.265 µM) | relative viability ([1]; 4 µM) | relative viability ([2]; first compound 0.04 µM) | relative viability ([2]; first compound 0.1265 µM) | relative viability ([2]; first compound 0.4 µM) | relative viability ([2]; first compound 1.265 µM) | relative viability ([2]; first compound 4 µM) | relative viability ([3]; first compound 0.002 µM) | relative viability ([3]; first compound 0.006325 µM) | relative viability ([3]; first compound 0.02 µM) | relative viability ([3]; first compound 0.06325 µM) | relative viability ([3]; first compound 0.2 µM) | relative viability ([4]; first compound 0.002 µM) | relative viability ([4]; first compound 0.006325 µM) | relative viability ([4]; first compound 0.02 µM) | relative viability ([4]; first compound 0.06325 µM) | relative viability ([4]; first compound 0.2 µM) |
| --- | --- | --- | --- | --- | --- | --- | --- | --- | --- | --- | --- | --- | --- | --- | --- | --- | --- | --- | --- | --- |
| HCC-827 | 1.08 | 1.05 | 1.01 | 1.08 | 0.952 | 0.507 | 0.471 | 0.426 | 0.349 | 0.378 | 0.961 | 1.02 | 1.01 | 1.01 | 0.748 | 0.843 | 0.946 | 1.02 | 0.997 | 0.846 |
| NCI-H1755 | 1.01 | 1.01 | 0.955 | 0.926 | 0.949 | 0.462 | 0.422 | 0.444 | 0.437 | 0.465 | 0.819 | 0.952 | 1.04 | 1.01 | 0.867 | 0.883 | 0.966 | 1.02 | 0.988 | 0.951 |
| NCI-H661 | 1.07 | 0.976 | 0.98 | 1.01 | 0.994 | 0.417 | 0.425 | 0.398 | 0.459 | 0.421 | 0.945 | 0.88 | 0.891 | 0.727 | 0.648 | 0.632 | 0.515 | 0.637 | 0.505 | 0.561 |
| NCI-H1944 | 1.21 | 0.943 | 0.785 | 1.01 | 0.803 | 0.36 | 0.315 | 0.297 | 0.292 | 0.283 |  |  |  |  |  | 1.09 | 1.02 | 1.17 | 1.19 | 1.21 |
| NCI-H23 | 1.15 | 1.07 | 0.69 | 0.713 | 1 | 0.51 | 0.467 | 0.441 | 0.501 | 0.521 | 0.865 | 0.924 | 1.02 | 1.06 | 0.725 | 0.602 | 0.513 | 0.607 | 0.549 | 0.589 |
| NCI-H1648 | 0.963 | 0.918 | 0.697 | 0.849 | 0.661 | 0.239 | 0.291 | 0.298 | 0.262 | 0.315 |  |  |  |  |  |  |  |  |  |  |
| NCI-H522 | 1.13 | 0.865 | 0.916 | 0.997 | 0.974 | 0.958 | 0.793 | 0.903 | 0.947 | 0.796 |  |  |  |  |  |  |  |  |  |  |
| EBC-1 | 1 | 1.1 | 0.986 | 0.965 | 0.88 |  |  |  |  |  | 0.57 | 0.5 | 0.642 | 0.54 | 0.542 | 0.864 | 0.73 | 0.894 | 0.919 | 0.605 |
| ChaGo-K-1 | 1.09 | 0.914 | 0.946 | 1.02 | 0.992 | 0.972 | 0.928 | 0.987 | 0.904 | 0.901 | 1.09 | 1.11 | 1.05 | 0.332 | 0.307 |  |  |  |  |  |
| NCI-H1299 | 1.02 | 1.07 | 1.03 | 1.04 | 1 |  |  |  |  |  | 1.02 | 1.01 | 1.03 | 1.03 | 0.987 | 0.926 | 0.929 | 1.07 | 0.992 | 0.471 |
| NCI-H1623 | 1 | 0.961 | 0.846 | 0.949 | 0.817 |  |  |  |  |  |  |  |  |  |  |  |  |  |  |  |
| NCI-H1793 | 1.01 | 1.02 | 0.569 | 0.846 | 0.545 | 0.331 | 0.27 |  | 0.298 | 0.26 |  |  |  |  |  | 0.862 | 0.722 | 0.676 | 0.841 | 0.779 |
| IA-LM | 0.975 | 1.05 | 1.02 | 1.23 | 0.955 |  |  |  |  |  | 0.81 | 0.82 | 0.943 | 0.695 | 0.641 | 0.484 | 0.488 | 0.784 | 0.702 | 0.644 |
| NCI-H596 | 1.05 | 1.01 | 0.976 | 1.04 | 0.809 |  |  |  |  |  | 1.22 | 0.869 | 1.14 | 0.851 | 0.71 | 1.08 | 0.983 | 1.04 | 0.908 | 0.54 |
| A549 | 1.01 | 0.956 | 0.747 | 1.04 | 0.825 |  |  |  |  |  |  |  |  |  |  | 0.568 | 0.569 | 0.645 | 0.57 | 0.709 |
| NCI-H2170 | 1.01 | 1.02 | 0.88 | 0.885 | 0.807 | 0.398 | 0.434 | 0.384 | 0.347 | 0.336 |  |  |  |  |  |  |  |  |  |  |
| NCI-H1563 | 0.96 | 0.997 | 0.909 | 0.946 | 0.876 |  |  |  |  |  | 0.784 | 0.869 | 0.978 | 0.855 | 0.932 | 1.1 | 1.13 | 1.17 | 1.18 | 1.17 |
| Calu-6 | 1.04 | 1.04 | 0.977 | 0.998 | 0.947 |  |  |  |  |  | 0.963 | 0.937 | 1.01 | 0.971 | 0.942 |  | 0.964 | 1.08 | 0.977 | 0.72 |
| NCI-H1650 | 0.984 | 0.907 | 0.882 | 0.91 | 0.815 | 0.361 | 0.338 | 0.297 | 0.324 | 0.291 | 0.208 | 0.208 | 0.204 | 0.22 | 0.2 |  |  |  |  |  |
| NCI-H358 | 1.04 | 0.864 | 0.794 | 0.901 | 0.861 | 0.178 | 0.138 | 0.137 | 0.153 | 0.153 |  |  |  |  |  | 0.641 | 0.666 | 0.514 | 0.261 | 0.282 |
| SK-MES-1 | 1.04 | 1.01 | 0.885 | 0.749 | 0.745 | 0.296 | 0.311 | 0.299 | 0.315 | 0.288 |  |  |  |  |  | 1.01 | 1.02 | 1.07 | 0.984 | 0.955 |
| NCI-H2342 | 1.06 | 1.09 | 0.907 | 1.03 | 0.882 | 0.485 | 0.495 | 0.484 | 0.519 | 0.473 |  |  |  |  |  |  |  |  |  |  |
